In the assay the target is Bromodomain-containing protein 4 (Homo sapiens, UniProt O60885). Nature of the assay: A mix consisting of 15 nM GST-BRD4-BD1 protein (aa 44-168) or 150 nM GST-BRD4-BD2 (aa 333-460) and 15 nM biotinylated Acetyl-Histone H4 (Lys5, 8, 12, 16) peptide is prepared in assay buffer (50 mM HEPES pH=7.4; 25 mM NaCl; 0.05% Tween 20; 0.1% bovine serum albumin (BSA); 10 mM dithiothreitol (DTT)). 6 μl of the mix is added to the compound dilutions. Subsequently, 6 μl of premixed AlphaLISA Glutathione Acceptor Beads and AlphaScreen Streptavidin Donor Beads from PerkinElmer (in assay buffer at a concentration of 10 μg/ml each) are added and the samples are incubated for 30 min at RT in the dark (shaking 300 rpm). Afterwards, the signal is measured in a PerkinElmer Envision HTS Multilabel Reader using the AlphaScreen protocol from PerkinElmer.Each plate contains negative controls where biotinylated Acetyl-Histone H4 peptide and GST-BRD4-BD1 or GST-BRD4-BD2 are left out and replaced by assay buffer. Negative control values are entered as low basis value when using the software GraphPad Prism for calculations. Furthermore, a positive control (probe molecule JQ1+ with protein/peptide mix) is pipetted. Determination of IC50 values are carried out using GraphPad Prism 3.03 software (or updates thereof).

Each structure is given as a SMILES string.

On to `CNc1nc(-c2nn(C)c(C)c2Oc2ccccc2)cn2c(C)nnc12`, for which the IC50 was 8 nM.

Values taken from ChEMBL document CHEMBL5727121, “Substituted [1,2,4]triazolo[4,3-a]pyrazines as BRD4 inhibitors” (2019).
